This is an account of results in publication PMC13147323, “EGFR-Targeted and MMP-Activated Membranolytic Peptides Kill Cancer Cells Specifically In Vitro and Reduce Tumor Growth In Vivo” (Molecular Pharmaceutics, 2026).

SMILES strings stand for the structures. Residues, ends and D or L forms follow the SMILES beside them.

The subject of one data set is MDA-MB-231 cells. Format: cell-based, human. Conditions: 24 h. On the procedure:
(§1) MDA-MB-468, MDA-MB-231, BT-474, AU-565, HB2, and MCF-10A cells were procured from American Type Culture Collection (ATCC) and validated for lack of mycoplasma contamination (MycoAlert; Lonza, Basel, Switzerland) and identity (short tandem repeat profiling; Source Bioscience, Nottingham, UK). Cells (except MCF-10A) were cultured in Dulbecco’s modified Eagle medium (DMEM) supplemented with 10% (v/v) fetal calf serum (FCS) and 100 units/mL penicillin–streptomycin (Thermo Scientific; Waltham, MA, USA). MCF-10A was cultured in DMEM supplemented with 5% horse serum, 0.1 μg/mL cholera toxin, 0.5 μg/mL hydrocortisone, 0.02 μg/mL epidermal growth factor, and 100 units/mL penicillin–streptomycin (Thermo Scientific, Waltham, MA, USA). Cells were grown at 37 °C in a humidified incubator with 5% CO2. Cells were maintained and experiments were performed under conditions ensuring cell densities that supported exponential growth.
(§2) Cells were seeded in 96-well plates at 1 × 10^4 cells/well in complete growth media and incubated for 18 h. Cells were then treated with peptides (0–250 μM) for up to 24 h. Cells were then incubated with 0.5 mg/mL MTT dissolved in PBS for 3 h. Formazan crystals were dissolved using […] of isopropanol and absorbance was measured at 570 nm on a microplate spectrophotometer (Biotech Instruments, USA). For spheroids assays, MDA-MB-468 or HB2 cells (1000 cells/well) were seeded in 250 μL of DMEM supplemented with 10% FCS and 2.5% Matrigel (Corning, New York, USA) in low-adherent, round-bottom 96-well plates (Corning, New York, USA). The plates were centrifuged at 360g for 10 min and subsequently incubated for 48 h to allow spheroid formation. MDA-MB-468 or HB2 spheroids were then treated with peptides at the IC50 doses determined for MDA-MB-468 cells for 24 h. Cellular viability within spheroids was assessed by staining with Hoechst 33342 (5 μg/mL) for 30 min, followed by propidium iodide (PI) (1.5 μg/mL) for 10 min. Red fluorescence indicated nonviable cells stained with PI, whereas blue fluorescence represented both viable and nonviable cells stained with Hoechst 33342. The survival of spheroids was determined by calculating ratios of blue/red fluorescence using ImageJ software.
(§3) A panel of human breast epithelial cell lines was established, including two lines from a nontransformed origin (MCF-10A; HB2) and four cancer lines (BT-474; AU-565; MDA-MB-231; MDA-MB-468). Cells were treated with different doses of MP1 or the modified peptides. Survival was assessed relative to untreated using MTT assays (Figures and S2) and IC50 doses were determined for each peptide in each cell line.

The next data set deals with HB2 cells. Format: cell-based, human. Particulars: 24 h. How it is done: as §1, §2, §3
The next data set has as its system MDA-MB-468 cells. Format: cell-based, human. Conditions: 24 h. How it is done:
as §1, §2, §3

The subject of the next data set is BT-474 cells. Format: cell-based, human. Conditions: 24 h. How it is done:
as §1, §2, §3

The next data set relates to MCF-10A cells. The format is cell-based, human. Conditions: 24 h. On the procedure:
as §1, §2, §3

A further data set concerns AU-565 cells. The format is cell-based, human. Particulars: 24 h. How it is done:
as §1, §2, §3

The next data set has as its system MDA-MB-468 xenografts. The data set is described as follows: MDA-MB-468 xenograft study in NCG mice. The format is in vivo, mouse. Conditions: 500 μg i.v. days 1, 3, 5, monitored 27 days, recovered by the end of the experiment. How it is done:
These were performed by HD Biosciences (Shanghai, China). Procedures related to handling, care, and treatment of animals were performed according to guidelines approved by the HD Biosciences Institutional Animal Care and Use Committee (reference number AUC105), under the criteria of the Association for Assessment and Accreditation of Laboratory Animal Care (AAALAC). Protocols and AAALAC accreditation were reviewed by the Animal Welfare and Ethical Review Committee at the University of Leeds and were approved (reference number THAWERC222707; date 28/7/2022). Protocols and data are reported in accordance with the ARRIVE guidelines (https://arriveguidelines.org/arrive-guidelines). Female NCG mice (6–8 weeks old) were purchased from GemPharmatech Ltd. (Nanjing, China). […] Two groups were used: control group (13 animals) and test group (7 animals); group sizes were not determined by power calculation due to lack of data on which this could be based. […] Tumor volumes were monitored using calipers, and body weight was monitored throughout the experiment; no animals were excluded. […]
NCG immune-compromised female mice were implanted subcutaneously with MDA-MB-468 xenografts. […] Tumor size and animal weight were monitored every 2 to 3 days for a total of 27 days, after which animals were sacrificed and tumors were dissected and weighed. […]

Another data set has as its system red blood cells. The data set is described as follows: Ex vivo hemolysis assay. The format is cell-based. Particulars: mouse RBCs 1:50 in PBS, three doses, 1 h, 37 °C, absorbance 540 nm. On the procedure:
Blood was collected from five 10-week-old male C57BL/6 mice via cardiac puncture following cervical dislocation, using pediatric blood collection tubes containing K3 EDTA (Greiner; Slušovice, Czechia). Blood was centrifuged (500g; 5 min; 4 °C) and plasma was removed. Red blood cells (RBCs) were resuspended to their original volume using 150 mM NaCl. RBCs were repeatedly washed and diluted to 1:50 in PBS. For a positive control, 1% (v/v) Triton X-100 was used (100% lysis), while cells incubated in PBS served as a negative control (0% lysis). 200 μL of RBCs in triplicate was treated with peptides and incubated on an orbital shaker (100 rpm; 1 h; 37 °C). Samples were centrifuged (500g; 5 min) and supernatants, containing lysed RBCs, were collected. Hemolysis was quantified by measuring absorbance at 540 nm.
Our next aim was to assess whether our various peptides had potential as anticancer therapeutics using an in vivo model. To our knowledge, MP1 or MP1-derived peptides have not previously been used experimentally in vivo, therefore we first performed an in vitro hemolysis assay to aid selection of peptides that could be suitable for intravenous delivery. Red blood cells were isolated from mouse blood and treated with three different doses of MP1 wildtype or our targeted peptides (EGFR and EGFR-MMP versions of both MP1 and D2K) and hemolysis was measured (Figure A).

For the compound `CC[C@H](C)[C@H](N)C(=O)N[C@@H](CC(=O)O)C(=O)N[C@@H](Cc1c[nH]c2ccccc12)C(=O)N[C@@H](CCCCN)C(=O)N[C@@H](CCCCN)C(=O)N[C@@H](CC(C)C)C(=O)N[C@@H](CC(C)C)C(=O)N[C@@H](CC(=O)O)C(=O)N[C@@H](C)C(=O)N[C@@H](C)C(=O)N[C@@H](CCCCN)C(=O)N[C@@H](CCC(N)=O)C(=O)N[C@H](C(=O)N[C@@H](CC(C)C)C(=O)NCC(=O)N1CCC[C@H]1C(=O)N[C@@H](CC(C)C)C(=O)NCC(=O)N[C@H](C(=O)N[C@@H](C)C(=O)NCC(=O)N[C@@H](CCC(N)=O)C(=O)N[C@@H](Cc1ccc(O)cc1)C(=O)N[C@@H](Cc1c[nH]cn1)C(=O)N[C@@H](Cc1c[nH]c2ccccc12)C(=O)N[C@@H](Cc1ccc(O)cc1)C(=O)NCC(=O)N[C@@H](Cc1ccc(O)cc1)C(=O)N[C@H](C(=O)N1CCC[C@H]1C(=O)N[C@@H](CCC(=O)O)C(=O)N[C@@H](CC(N)=O)C(=O)N[C@H](C(=O)N[C@H](C(=O)O)[C@@H](C)CC)C(C)C)[C@@H](C)O)[C@@H](C)CC)[C@@H](C)CC` [EGFR-MMP-MP1] (H-IDWKKLLDAAKQILGPLGIAGQYHWYGYTPENVI-OH), the IC50 in the data set with MDA-MB-231 cells is 57.9 µM; in the data set on HB2 cells, 92.4 µM; with MDA-MB-468 cells, 56.6 µM; in the data set with BT-474 cells it was 116 µM; in the data set on MCF-10A cells, 114 µM; in the data set on AU-565 cells it was 105 µM. For the same compound, the “selectivity index (IC50 noncancer line / IC50 cancer line)” value in the data set on MDA-MB-468 cells was found to be 1.63. Further, the “animal weights as surrogate for side-effects” value in the data set with MDA-MB-468 xenografts was “slightly reduced”. Besides, in the data set with red blood cells, the “hemolysis (in words)” value is “low hemolysis at relevant doses”.
